Where a SMILES comes first, the peptide text is derived from it. Where no end group is shown, it is not given here. [ ]: non-standard residue; d: D form.
Experiments:
[1] = test system: ZIKV (Brazil/2016/INMI1 strain); experiment: Dose-dependent effect on ZIKV infection of Vero E6 cells; assay type: cell-based, Zika virus; details: MOI of 1, Brazil/2016/INMI1 strain, fitted dose-response model
Method: FIG 4 Amphipathicity was involved in the differences in potency between claudin-derived peptides. […] Three amino acids of interest at positions 11, 15, and 18 are indicated. (B) Sequences of the parental and modified peptides. The swapped amino acids are highlighted. (C) ZIKV (MOI of 1) was treated with 50 μM of the modified peptides described in (B) for 1 h. […] Left or right orientations of the helixes are indicated with an arrow and the hydrophobic faces of each peptide are shown with a black line. […] The dark line represents the fitted dose-response model for each peptide and the light area represents the 95% confidence interval of the model. The calculated IC50 is indicated.
A D-enantiomer of an alpha helix forms a mirrored left-handed helix (Fig. 4D) but retains the same physicochemical properties ([28]).

ZIKV [2] = experiment: ZIKV internalization assay in hCMEC/D3 cells; assay type: cell-based, Zika virus; details: 2 h at 37°C
ZIKV [3] = experiment: ZIKV binding assay on hCMEC/D3 cells; assay type: cell-based, Zika virus
HCV = test system: HCV; set-up: method as in PMID 22378192; details: Huh7.5.1 cells; cited from earlier work
HIV-1 = details: 50 μM, human primary CD4+ T cells, 72 h, flow cytometry
ZIKV [4] = experiment: ZIKV viral production, supernatants of infected hCMEC/D3 cells titrated on Vero E6 cells; assay type: cell-based, Zika virus; details: 50 μM peptide, MOI of 1, titrated on Vero E6
ZIKV [5] = details: for IC50: read-out: IC50, ZIKV infection in hCMEC/D3, ZIKV MOI of 1, hCMEC/D3, fitted dose-response model, R^2 0.9 (CL1.1) and 0.7 (CL7.1)
ZIKV [6] = experiment: ZIKV replication and production in TrHBMEC, HUVEC, A549 and HEK 293T cells; assay type: cell-based, Zika virus; details: 50 μM peptide, MOI of 1, HUVEC, RT-qPCR and titration
Caco-2 epithelial cells = details: 50 μM, differentiated Caco-2 monolayers on Transwell, over 24 h, n = 3
ZIKV [7] = experiment: Pretreatment of hCMEC/D3 cells with peptide before ZIKV infection; details: 10 μM for 1 h, cells washed, then ZIKV MOI of 1 for 48 h, hCMEC/D3, RT-qPCR
ZIKV [8] = experiment: Treatment of concentrated ZIKV stock followed by 30-fold dilution and infection of hCMEC/D3; details: ZIKV stock 1.5 × 10^7 PFU/mL treated with 10 μM for 1 h, diluted by a factor of 30, hCMEC/D3, 48 h
SARS-CoV-2 = assay type: cell-based; details: 50 μM, Vero E6 cells, MOI of 1, 72 h, flow cytometry
ZIKV E-mediated fusion = assay type: cell-based, Zika virus; details: C6/36 infected with ZIKV MOI of 2 for 48 h, acidification 2 h, fusion index

## CC[C@@H](C)[C@@H](NC(=O)[C@@H](Cc1ccccc1)NC(=O)CNC(=O)[C@@H](CC(C)C)NC(=O)[C@@H](CC(C)C)NC(=O)[C@@H](CCC(N)=O)NC(=O)[C@@H](CC(C)C)NC(=O)CNC(=O)[C@@H](C)NC(=O)[C@@H](CC(N)=O)NC(=O)[C@@H](C)NC(=O)[C@H](N)CCSC)C(=O)N[C@H](CC(C)C)C(=O)N[C@H](C)C(=O)N[C@H](Cc1ccccc1)C(=O)N[C@H](CC(C)C)C(=O)NCC(=O)N[C@H](Cc1c[nH]c2ccccc12)C(=O)O [D-CL1.1] (H-[dM][dA][dN][dA]G[dL][dQ][dL][dL]G[dF][dI][dL][dA][dF][dL]G[dW]-OH; N-terminus and C-terminus assumed)
[1]
  IC50: 670 ± 40 nM
JEV
  antiviral properties against JEV compared with CL1.1: comparable to that of CL1.1
YFV; Vero E6, MOI of 1, increasing concentrations (Fig. S6)
  antiviral properties against YFV compared with CL1.1: comparable to that of CL1.1

## O=C(N/N=C/c1ccc(O)c(O)c1)c1cc2ccccc2cc1O [Dynasore, reference compound]
ZIKV [2]; 100 μM, positive control, hCMEC/D3
  reduction of viral internalization: 95%

## Heparin [reference compound]
ZIKV [3]; 200 μg/mL, positive control, 1 h at 4°C, MOI of 10, hCMEC/D3
  reduction of viral binding: 80%

## MANAGLQLLGFILAFLGW [CL1.1]
HCV
  antiviral activity against HCV infection: exhibited antiviral activity
HIV-1
  antiviral activity against HIV-1 infection: No antiviral activity
ZIKV [4]
  viral production (infectious particles in supernatants): below the detection limit of the assay
[1]
  IC50: 710 ± 50 nM
ZIKV [5]; 50 μM peptide, hCMEC/D3, MOI of 1, 48 h, RT-qPCR
  intracellular viral RNA levels / impact on ZIKV infection: below the threshold of detection
ZIKV [5]
  IC50: ~0.87 µM
ZIKV [6]
  ZIKV replication and production: undetectable
Caco-2 epithelial cells
  electric transepithelial resistance: did not alter
ZIKV [7]
  cell susceptibility to ZIKV after pretreatment of cells: did not affect cell susceptibility to ZIKV
ZIKV [2]; 10 μM, trypsin removal of surface virus, RT-qPCR
  ZIKV internalization in hCMEC/D3 cells: did not alter
ZIKV [3]; 10 μM, inoculum treated 1 h, adsorption 1 h at 4°C, MOI of 10, RT-qPCR
  binding of ZIKV to hCMEC/D3 cells: did not alter
YFV; read-out: IC50, YFV, Vero E6, MOI of 1, YFV/17D strain, titration of supernatants
  IC50: 560 ± 50 nM
ZIKV [8]
  reduction of intracellular viral RNA levels: 80%
SARS-CoV-2
  antiviral activity against SARS-CoV-2 infection: No antiviral activity
ZIKV E-mediated fusion; 10 μM
  reduction of syncytium formation: 80%

## MANSGLQLLGFSMALLGW [CL7.1]
ZIKV [4]
  viral production (infectious particles in supernatants): significantly reduced
ZIKV [5]; 50 μM peptide, inoculum treated 1 h, adsorption 2 h, MOI of 1, peptide kept 48 h, hCMEC/D3, RT-qPCR
  reduction of viral RNA levels compared to untreated cells: 2 fold
ZIKV [5]; 50 μM, virus and peptide added simultaneously to the cell culture, hCMEC/D3
  antiviral activity in the absence of pretreatment: also detected
ZIKV [5]
  IC50: 53 ± 13 µM
ZIKV [6]
  ZIKV replication and production: significantly reduced
ZIKV E-mediated fusion; 50 μM
  reduction of syncytium formation / fusion: 40%

From PMC9603178, “Human Claudin-Derived Peptides Block the Membrane Fusion Process of Zika Virus and Are Broad Flavivirus Inhibitors” (Microbiology Spectrum, 2022)
